Experimental data taken from PubChem BioAssay AID1963450 (Molecular Pharmacology Branch, DTP, NCI, 2024).
One block for each compound: values may come before it.

Test system: 556581-035-R-J1-PDC complex spheroid growth
Test: Anticancer human tumor 556581-035-R-J1-PDC patient-derived ovarian carcinoma cell line growth inhibition [Asc]
Conditions: for IC50: curve of first compound; for viability, T/C: stronger effect = lower value
Procedure, shortened: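 Tumor cells were grown as complex spheroids with human endothelial cells (HUVEC) and human mesenchymal stem cells as stroma. Agents were tested alone and in combination, in half-log steps down from the clinical Cmax, or from 10 microM where Cmax was unknown.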

[1] = second compound 0.03 µM, first compound 0.0316 µM
[2] = second compound 0.03 µM, first compound 0.1 µM
[3] = second compound 0.03 µM, first compound 0.316 µM
[4] = second compound 0.03 µM, first compound 1 µM
[5] = second compound 0.0949 µM, first compound 0.0316 µM
[6] = second compound 0.0949 µM, first compound 0.1 µM
[7] = second compound 0.0949 µM, first compound 0.316 µM
[8] = second compound 0.0949 µM, first compound 1 µM
[9] = second compound 0.3 µM, first compound 0.0316 µM
[10] = second compound 0.3 µM, first compound 0.1 µM
[11] = second compound 0.3 µM, first compound 0.316 µM
[12] = second compound 0.3 µM, first compound 1 µM
[13] = second compound 0.949 µM, first compound 0.0316 µM
[14] = second compound 0.949 µM, first compound 0.1 µM
[15] = second compound 0.949 µM, first compound 0.316 µM
[16] = second compound 0.949 µM, first compound 1 µM
[17] = second compound 3 µM, first compound 0.0316 µM
[18] = second compound 3 µM, first compound 0.1 µM
[19] = second compound 3 µM, first compound 0.316 µM
[20] = second compound 3 µM, first compound 1 µM
[21] = second compound 0.1 µM, first compound 0.0316 µM
[22] = second compound 0.1 µM, first compound 0.1 µM
[23] = second compound 0.1 µM, first compound 0.316 µM
[24] = second compound 0.1 µM, first compound 1 µM
[25] = second compound 0.316 µM, first compound 0.0316 µM
[26] = second compound 0.316 µM, first compound 0.1 µM
[27] = second compound 0.316 µM, first compound 0.316 µM
[28] = second compound 0.316 µM, first compound 1 µM
[29] = second compound 1 µM, first compound 0.0316 µM
[30] = second compound 1 µM, first compound 0.1 µM
[31] = second compound 1 µM, first compound 0.316 µM
[32] = second compound 1 µM, first compound 1 µM
[33] = second compound 3.16 µM, first compound 0.0316 µM
[34] = second compound 3.16 µM, first compound 0.1 µM
[35] = second compound 3.16 µM, first compound 0.316 µM
[36] = second compound 3.16 µM, first compound 1 µM
[37] = second compound 10 µM, first compound 0.0316 µM
[38] = second compound 10 µM, first compound 0.1 µM
[39] = second compound 10 µM, first compound 0.316 µM
[40] = second compound 10 µM, first compound 1 µM
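Further: spheroids exposed to agents for 7 days before viability read.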

IC50 (second compound 0.03 µM): > 1 µM
IC50 (second compound 0.0949 µM): > 1 µM
IC50 (second compound 0.3 µM): > 1 µM
IC50 (second compound 0.949 µM): > 1 µM
IC50 (second compound 3 µM): > 1 µM
SMILES: CNC(C)C(=O)NC1CN(S(=O)(=O)c2cccc(S(=O)(=O)N3CCC4CCC(C(=O)NC(c5ccccc5)c5ccccc5)N4C(=O)C(NC(=O)C(C)NC)C3)c2)CCC2CCC(C(=O)NC(c3ccccc3)c3ccccc3)N2C1=O (stereo not given) + CCN1C(C(=O)NC23CCC(C(=O)O)(CC2)CC3)C(c2cccc(Cl)c2F)C2(C(=O)Nc3cc(Cl)ccc32)C12CCCCC2
viability, T/C (second compound 0.03 µM, first compound 0.00316 µM): 94.8%
viability, T/C (second compound 0.03 µM, first compound 0.01 µM): 82.8%
viability, T/C [1]: 97.9%
viability, T/C [2]: 76.4%
viability, T/C [3]: 61.8%
viability, T/C [4]: 54.3%
viability, T/C (second compound 0.0949 µM, first compound 0.00316 µM): 88.3%
viability, T/C (second compound 0.0949 µM, first compound 0.01 µM): 98.8%
viability, T/C [5]: 87%
viability, T/C [6]: 76.8%
viability, T/C [7]: 65.6%
viability, T/C [8]: 60.5%
viability, T/C (second compound 0.3 µM, first compound 0.00316 µM): 108%
viability, T/C (second compound 0.3 µM, first compound 0.01 µM): 97.5%
viability, T/C [9]: 106%
viability, T/C [10]: 77.3%
viability, T/C [11]: 73%
viability, T/C [12]: 57.1%
viability, T/C (second compound 0.949 µM, first compound 0.00316 µM): 85.5%
viability, T/C (second compound 0.949 µM, first compound 0.01 µM): 81.2%
viability, T/C [13]: 93.9%
viability, T/C [14]: 66.8%
viability, T/C [15]: 65.1%
viability, T/C [16]: 65.5%
viability, T/C (second compound 3 µM, first compound 0.00316 µM): 105%
viability, T/C (second compound 3 µM, first compound 0.01 µM): 94.6%
viability, T/C [17]: 78.7%
viability, T/C [18]: 70.8%
viability, T/C [19]: 63.3%
viability, T/C [20]: 60.5%

IC50 (second compound 0.03 µM): > 10 µM
IC50 (second compound 0.0949 µM): > 10 µM
IC50 (second compound 0.3 µM): > 10 µM
IC50 (second compound 0.949 µM): > 10 µM
IC50 (second compound 3 µM): > 10 µM
SMILES: C#Cc1c(F)ccc2cc(O)cc(-c3ncc4c(N5CC6CCC(C5)N6)nc(OCC56CCCN5CC(F)C6)nc4c3F)c12 (stereo not given) + CCN1C(C(=O)NC23CCC(C(=O)O)(CC2)CC3)C(c2cccc(Cl)c2F)C2(C(=O)Nc3cc(Cl)ccc32)C12CCCCC2
viability, T/C [1]: 98.9%
viability, T/C [2]: 86%
viability, T/C [3]: 102%
viability, T/C [4]: 89.6%
viability, T/C (second compound 0.03 µM, first compound 3.16 µM): 96.7%
viability, T/C (second compound 0.03 µM, first compound 10 µM): 89.6%
viability, T/C [5]: 105%
viability, T/C [6]: 83.2%
viability, T/C [7]: 93.9%
viability, T/C [8]: 79.5%
viability, T/C (second compound 0.0949 µM, first compound 3.16 µM): 91%
viability, T/C (second compound 0.0949 µM, first compound 10 µM): 61.9%
viability, T/C [9]: 80.2%
viability, T/C [10]: 66.7%
viability, T/C [11]: 75%
viability, T/C [12]: 86.1%
viability, T/C (second compound 0.3 µM, first compound 3.16 µM): 83.3%
viability, T/C (second compound 0.3 µM, first compound 10 µM): 61.8%
viability, T/C [13]: 86.6%
viability, T/C [14]: 80.3%
viability, T/C [15]: 85.7%
viability, T/C [16]: 74.9%
viability, T/C (second compound 0.949 µM, first compound 3.16 µM): 76.3%
viability, T/C (second compound 0.949 µM, first compound 10 µM): 78.5%
viability, T/C [17]: 95.8%
viability, T/C [18]: 102%
viability, T/C [19]: 76%
viability, T/C [20]: 78%
viability, T/C (second compound 3 µM, first compound 3.16 µM): 70.1%
viability, T/C (second compound 3 µM, first compound 10 µM): 78.6%

IC50 (second compound 0.1 µM): > 10 µM
IC50 (second compound 0.316 µM): > 10 µM
IC50 (second compound 1 µM): 7.57 µM
IC50 (second compound 3.16 µM): 8.82 µM
IC50 (second compound 10 µM): 1.21 µM
SMILES: C#Cc1c(F)ccc2cc(O)cc(-c3ncc4c(N5CC6CCC(C5)N6)nc(OCC56CCCN5CC(F)C6)nc4c3F)c12 (stereo not given) + Cc1c(S(C)(=O)=O)c(-c2cc(F)cc(N3CCN(c4ccc(NS(=O)(=O)c5ccc(NC(CCN6CCC(C(=O)OCCCP(=O)(O)O)CC6)CSc6ccccc6)c(S(=O)(=O)C(F)(F)F)c5)cc4)CC3)c2)c(-c2ccc(Cl)cc2)n1C(C)C
viability, T/C [21]: 82%
viability, T/C [22]: 83.8%
viability, T/C [23]: 63.6%
viability, T/C [24]: 64.5%
viability, T/C (second compound 0.1 µM, first compound 3.16 µM): 79.7%
viability, T/C (second compound 0.1 µM, first compound 10 µM): 71.9%
viability, T/C [25]: 55%
viability, T/C [26]: 79.5%
viability, T/C [27]: 81.9%
viability, T/C [28]: 70.1%
viability, T/C (second compound 0.316 µM, first compound 3.16 µM): 63.6%
viability, T/C (second compound 0.316 µM, first compound 10 µM): 63.5%
viability, T/C [29]: 73.3%
viability, T/C [30]: 65.3%
viability, T/C [31]: 63.8%
viability, T/C [32]: 65.1%
viability, T/C (second compound 1 µM, first compound 3.16 µM): 59.2%
viability, T/C (second compound 1 µM, first compound 10 µM): 46.9%
viability, T/C [33]: 51.7%
viability, T/C [34]: 68.3%
viability, T/C [35]: 67.3%
viability, T/C [36]: 60.7%
viability, T/C (second compound 3.16 µM, first compound 3.16 µM): 57.8%
viability, T/C (second compound 3.16 µM, first compound 10 µM): 49.1%
viability, T/C [37]: 64.8%
viability, T/C [38]: 58.2%
viability, T/C [39]: 59.9%
viability, T/C [40]: 47%
viability, T/C (second compound 10 µM, first compound 3.16 µM): 47.3%
viability, T/C (second compound 10 µM, first compound 10 µM): 39.6%

IC50 (second compound 0.1 µM): 0.0469 µM
IC50 (second compound 0.316 µM): 0.0284 µM
IC50 (second compound 1 µM): 0.0189 µM
IC50 (second compound 3.16 µM): 0.0105 µM
IC50 (second compound 10 µM): 0.00316 µM
SMILES: COc1c(OCCCN2CCOCC2)ccc2c3n(c(=NC(=O)c4cnc(N)nc4)nc12)CCN3 + Cc1c(S(C)(=O)=O)c(-c2cc(F)cc(N3CCN(c4ccc(NS(=O)(=O)c5ccc(NC(CCN6CCC(C(=O)OCCCP(=O)(O)O)CC6)CSc6ccccc6)c(S(=O)(=O)C(F)(F)F)c5)cc4)CC3)c2)c(-c2ccc(Cl)cc2)n1C(C)C
viability, T/C (second compound 0.1 µM, first compound 0.00316 µM): 71%
viability, T/C (second compound 0.1 µM, first compound 0.01 µM): 67.5%
viability, T/C [21]: 42.1%
viability, T/C [22]: 51.2%
viability, T/C [23]: 29.9%
viability, T/C [24]: 10.1%
viability, T/C (second compound 0.316 µM, first compound 0.00316 µM): 75.6%
viability, T/C (second compound 0.316 µM, first compound 0.01 µM): 56.6%
viability, T/C [25]: 44.4%
viability, T/C [26]: 47.9%
viability, T/C [27]: 16.4%
viability, T/C [28]: 10.5%
viability, T/C (second compound 1 µM, first compound 0.00316 µM): 57.9%
viability, T/C (second compound 1 µM, first compound 0.01 µM): 61.3%
viability, T/C [29]: 41.5%
viability, T/C [30]: 27.7%
viability, T/C [31]: 14.2%
viability, T/C [32]: 9.33%
viability, T/C (second compound 3.16 µM, first compound 0.00316 µM): 59%
viability, T/C (second compound 3.16 µM, first compound 0.01 µM): 50.5%
viability, T/C [33]: 41.7%
viability, T/C [34]: 29%
viability, T/C [35]: 23.9%
viability, T/C [36]: 9.13%
viability, T/C (second compound 10 µM, first compound 0.00316 µM): 48.7%
viability, T/C (second compound 10 µM, first compound 0.01 µM): 57.3%
viability, T/C [37]: 34%
viability, T/C [38]: 53.7%
viability, T/C [39]: 11.1%
viability, T/C [40]: 19.6%
